Data reported in patent US10730870B2, “Compounds and methods for the enhanced degradation of targeted proteins” (Arvinas, Inc., priority 2015, dated 2020).

Target: VHL (Homo sapiens (Human), UniProt P40337)
Experiment: VHL fluorescence polarization (FP) competition assay
Type: binding

Row | IC50 (1% in DMSO) [µM] | IC50 (10% in DMSO) [µM] | IC50 (0.25% in DMSO) [µM] | VHL FP Assay IC50 (1% in DMSO) | VHL FP Assay IC50 (10% in DMSO) | SMILES
1 | 0.717 | 1.41 |  |  |  | COCCCc1ccc2c(c1)CN([C@H](C(=O)N1C[C@H](O)C[C@H]1C(=O)NCc1ccc(-c3scnc3C)cc1)C(C)C)C2=O [Example 57, (2S,4R)-4-hydroxy-1-((S)-2-(5-(3-methoxypropyl)-1-oxoisoindolin-2-yl)-3-methylbutanoyl)-N-(4-(4-methylthiazol-5-yl)benzyl)pyrrolidine-2-carboxamide]
2 | 1.45 | 0.293 |  |  |  | Cc1ncsc1-c1ccc(CNC(=O)[C@H]2C[C@H](O)CN2C(=O)[C@@H](CSSC[C@H](NC(=O)CCC(C)C)C(=O)N2C[C@H](O)C[C@H]2C(=O)NCc2ccc(-c3scnc3C)cc2)NC(=O)CCC(C)C)cc1 [Example 60, (2S,4R)-4-hydroxy-1-((R)-3-(((S)-3-((2R,4S)-4-hydroxy-2-(4-(4-methylthiazol-5-yl)benzylcarbamoyl)pyrrolidin-1-yl)-2-(4-methylpentanamido)-3-oxopropyl)disulfanyl)-2-(4-methylpentanamido)propanoyl)-N-(4-(4-methylthiazol-5-yl)benzyl)pyrrolidine-2-carboxamide]
3 |  | 406 |  |  |  | CC(C)[C@@H](C(=O)N1C[C@H](O)C[C@H]1C(=O)NCc1ccc(C2(O)COC2)cc1)N1Cc2ccccc2C1=O [Example 127, (2S,4R)-4-hydroxy-N-(4-(3-hydroxyoxetan-3-yl)benzyl)-1-((S)-3-methyl-2-(1-oxoisoindolin-2-yl)butanoyl)pyrrolidine-2-carboxamide]
4 | 0.937 | 1.65 | 3.77 |  |  | Cc1ncsc1-c1ccc(CNC(=O)[C@@H]2C[C@@H](O)CN2C(=O)[C@@H](NC(=O)CC2CCCCC2)C(C)(C)C)cc1 [Example 19, (2S,4R)-1-((S)-2-(2-cyclohexylacetamido)-3,3-dimethylbutanoyl)-4-hydroxy-N-(4-(4-methylthiazol-5-yl)benzyl)pyrrolidine-2-carboxamide]
5 | 20.6 | 7.41 | 1.9 |  |  | CSC[C@@H](C(=O)N1C[C@H](O)C[C@H]1C(=O)NCc1ccc(-c2scnc2C)cc1)N1Cc2ccccc2C1=O [Example 37, (2S,4R)-4-hydroxy-N-(4-(4-methylthiazol-5-yl)benzyl)-1-((R)-3-(methylthio)-2-(1-oxoisoindolin-2-yl)propanoyl)pyrrolidine-2-carboxamide]
6 | ~6.73 | 295 |  |  |  | Cc1ncsc1-c1ccc(CNC(=O)[C@@H]2C[C@@H](O)CN2C(=O)[C@@H](C(C)C)N2Cc3ccc(F)cc3C2=O)cc1 [Example 10, (2S,4R)-1-((R)-2-(6-fluoro-1-oxoisoindolin-2-yl)-3-methylbutanoyl)-4-hydroxy-N-(4-(4-methylthiazol-5-yl)benzyl)pyrrolidine-2-carboxamide]
7 | 0.619 | 1.33 | 3.04 |  |  | Cc1ncsc1-c1ccc(CNC(=O)[C@@H]2C[C@@H](O)CN2C(=O)[C@H](C(C)C)N2Cc3cccc(F)c3C2=O)cc1 [Example 8, (2S,4R)-1-((S)-2-(7-fluoro-1-oxoisoindolin-2-yl)-3-methylbutanoyl)-4-hydroxy-N-(4-(4-methylthiazol-5-yl)benzyl)pyrrolidine-2-carboxamide]
8 | 79.5 | 112 |  |  |  | Cc1ncsc1-c1ccc(CNC(=N)[C@@H]2C[C@@H](O)CN2C(=O)[C@H](C(C)C)N2Cc3ccccc3C2=O)cc1 [Example 126, (2S,4R)-4-hydroxy-1-((S)-3-methyl-2-(1-oxoisoindolin-2-yl)butanoyl)-N-(4-(4-methylthiazol-5-yl)benzyl)pyrrolidine-2-carboximidamide]
9 |  | 244 |  |  |  | Cc1ncsc1-c1ccc(CNC(=O)[C@@H]2C[C@@H](O)CN2C(=O)C2(N3Cc4ccccc4C3=O)CC2)cc1 [Example 49, (2S,4R)-4-hydroxy-N-(4-(4-methylthiazol-5-yl)benzyl)-1-(1-(1-oxoisoindolin-2-yl)cyclopropanecarbonyl)pyrrolidine-2-carboxamide]
10 | 12.4 |  |  |  |  | Cc1ncsc1-c1ccc(CNC(=O)[C@@H]2[C@@H](O)[C@@H](O)CN2C(=O)[C@H](C(C)C)N2Cc3ccccc3C2=O)cc1 [Example 147, (2S,3R,4S)-3,4-dihydroxy-1-((S)-3-methyl-2-(1-oxoisoindolin-2-yl)butanoyl)-N-(4-(4-methylthiazol-5-yl)benzyl)pyrrolidine-2-carboxamide]
11 | 0.905 | 1.85 | 2.42 |  |  | Cc1ncsc1-c1ccc(CNC(=O)[C@@H]2C[C@@H](O)CN2C(=O)[C@@H](NC(=O)c2ccccc2)C(C)(C)C)cc1 [Example 29, (2S,4R)-1-((S)-2-benzamido-3,3-dimethylbutanoyl)-4-hydroxy-N-(4-(4-methylthiazol-5-yl)benzyl)pyrrolidine-2-carboxamide]
12 | 16.8 | 30.5 |  |  |  | Cc1ncsc1-c1ccc(CNC(=O)[C@@H]2C[C@@H](O)CN2C(=O)c2ccccc2)cc1 [Example 64, (2S,4R)-1-benzoyl-4-hydroxy-N-(4-(4-methylthiazol-5-yl)benzyl)pyrrolidine-2-carboxamide]
13 | 0.834 | 1.21 |  |  |  | Cc1ncsc1-c1ccc(CNC(=O)[C@@H]2C[C@@H](O)CN2C(=O)C2(N3Cc4ccccc4C3=O)CCCCC2)cc1 [Example 54, (2S,4R)-4-hydroxy-N-(4-(4-methylthiazol-5-yl)benzyl)-1-(1-(1-oxoisoindolin-2-yl)cyclohexanecarbonyl)pyrrolidine-2-carboxamide]
14 | 1.33 | 1.67 | 2.38 |  |  | Cc1ncsc1-c1ccc(CNC(=O)[C@@H]2C[C@@H](O)CN2C(=O)[C@H](C(C)C)N2Cc3cc(Br)ccc3C2=O)cc1 [Example 25, (2S,4R)-1-((S)-2-(5-bromo-1-oxoisoindolin-2-yl)-3-methylbutanoyl)-4-hydroxy-N-(4-(4-methylthiazol-5-yl)benzyl)pyrrolidine-2-carboxamide]
15 | 56.6 | 1520 |  |  |  | Cc1ncsc1-c1ccc(CNC(=O)[C@@H]2C[C@@H](O)CN2C(=O)[C@@H](NC(=O)CCC(C)C)[C@H](C)O)cc1 [Example 51, (2S,4R)-4-hydroxy-1-((2S,3S)-3-hydroxy-2-(4-methylpentanamido)butanoyl)-N-(4-(4-methylthiazol-5-yl)benzyl)pyrrolidine-2-carboxamide]
16 |  |  |  | Not Active | Not Active | Cc1ncsc1-c1ccc(CNC(=O)[C@@H]2C[C@](C)(O)CN2C(=O)[C@H](C(C)C)N2Cc3ccccc3C2=O)cc1 [Example 62, (2S,4S)-4-hydroxy-4-methyl-1-((S)-3-methyl-2-(1-oxoisoindolin-2-yl)butanoyl)-N-(4-(4-methylthiazol-5-yl)benzyl)pyrrolidine-2-carboxamide]
17 | 134 |  |  |  |  | Cc1ncsc1-c1ccc(CNC(=O)[C@@H]2C[C@@](C)(O)CN2C(=O)[C@H](C(C)C)N2Cc3ccccc3C2=O)cc1 [Example 142, (2S,4R)-4-hydroxy-4-methyl-1-((S)-3-methyl-2-(1-oxoisoindolin-2-yl)butanoyl)-N-(4-(4-methylthiazol-5-yl)benzyl)pyrrolidine-2-carboxamide]
18 | 33.8 |  |  |  |  | Cc1ncn(C)c1-c1ccc(CNC(=O)[C@@H]2C[C@@H](O)CN2C(=O)[C@H](C(C)C)N2Cc3ccccc3C2=O)cc1 [Example 103, (2S,4R)—N-(4-(1,4-dimethyl-1H-imidazol-5-yl)benzyl)-4-hydroxy-1-((S)-3-methyl-2-(1-oxoisoindolin-2-yl)butanoyl)pyrrolidine-2-carboxamide]
19 | 1.15 | 3.36 | 2.22 |  |  | Cc1ncsc1-c1ccc(CNC(=O)[C@@H]2C[C@@H](O)CN2C(=O)[C@@H](NCCC(C)C)C2CCCC2)cc1 [Example 32, (2S,4R)-1-((S)-2-cyclopentyl-2-(isopentylamino)acetyl)-4-hydroxy-N-(4-(4-methylthiazol-5-yl)benzyl)pyrrolidine-2-carboxamide]
20 | 2.38 | 2.28 |  |  |  | CC(C)[C@@H](C(=O)N1C[C@H](O)C[C@H]1C(=O)NCc1ccc(-c2scnc2Br)cc1)N1Cc2ccccc2C1=O [Example 1, (2S,4R)—N-(4-(4-bromothiazol-5-yl)benzyl)-4-hydroxy-1-((S)-3-methyl-2-(1-oxoisoindolin-2-yl)butanoyl)pyrrolidine-2-carboxamide]
21 |  |  |  | Not Active | Not Active | CCC1(C(=O)NCc2ccc(-c3scnc3C)cc2)C[C@@H](O)CN1C(=O)c1cccc(OC)c1 (stereo partly drawn) [Example 67, (4R)-2-ethyl-4-hydroxy-1-(3-methoxybenzoyl)-N-(4-(4-methylthiazol-5-yl)benzyl)pyrrolidine-2-carboxamide]
22 | 1.62 | 1.38 |  |  |  | Cc1ncsc1-c1ccc(CNC(=O)[C@@H]2C[C@@H](O)CN2C(=O)[C@@H](NC(=O)c2cccc(C#N)c2)C(C)(C)C)cc1 [Example 71, (2S,4R)-1-((S)-2-(3-cyanobenzamido)-3,3-dimethylbutanoyl)-4-hydroxy-N-(4-(4-methylthiazol-5-yl)benzyl)pyrrolidine-2-carboxamide]
23 | 4.39 |  |  |  |  | CC(C)[C@@H](C(=O)N1C[C@H](O)C[C@H]1C(=O)NCc1ccc(-c2ncon2)cc1)N1Cc2ccccc2C1=O [Example 101, (2S,4R)—N-(4-(1,2,4-oxadiazol-3-yl)benzyl)-4-hydroxy-1-((S)-3-methyl-2-(1-oxoisoindolin-2-yl)butanoyl)pyrrolidine-2-carboxamide]
24 | 0.799 | 1.58 | 7.72 |  |  | CCc1ncsc1-c1ccc(CNC(=O)[C@@H]2C[C@@H](O)CN2C(=O)[C@H](C(C)C)N2Cc3ccccc3C2=O)cc1 [Example 5, (2S,4R)—N-(4-(4-ethylthiazol-5-yl)benzyl)-4-hydroxy-1-((S)-3-methyl-2-(1-oxoisoindolin-2-yl)butanoyl)pyrrolidine-2-carboxamide]

Row | SMILES | IC50 (1% in DMSO) [µM] | IC50 (10% in DMSO) [µM] | IC50 (0.25% in DMSO) [µM] | VHL FP Assay IC50 (1% in DMSO) | VHL FP Assay IC50 (10% in DMSO)
25 | Cc1ncsc1-c1ccc(CNC(=O)[C@@H]2C[C@@H](O)CN2C(=O)[C@H](C(C)C)N2Cc3ccccc3C2=O)cc1 [Example 6, (2S,4R)-4-hydroxy-1-((S)-3-methyl-2-(1-oxoisoindolin-2-yl)butanoyl)-N-(4-(4-methylthiazol-5-yl)benzyl)pyrrolidine-2-carboxamide] | 0.697 | 1.48 | 6.37 |  | 
